Type in all cases: in vivo
Common to all, as to settings: evaluated after 13 days

The subject of experiment [1] is Echinochloa crus-galli (ECHCG). In words: Pre-emergence herbicidal activity, Echinochloa crus-galli. More on the design: key: 5=total damage to plant; 0=no damage to plant. How it is done:
(§1) Seeds of a variety of test species were sown in standard soil in pots: Triticum aestivium (TRZAW), Avena fatua (AVEFA), Alopecurus myosuroides (ALOMY), Echinochloa crus-galli (ECHCG), Lolium perenne (LOLPE), Zea Mays (ZEAMX), Abutilon theophrasti (ABUTH), Amaranthus retroflexus (AMARE) and Setaria faberi (SETFA). After cultivation for one day (pre-emergence) under controlled conditions in a glasshouse (at 24/16° C., day/night; 14 hours light; 65% humidity), the plants were sprayed with an aqueous spray solution derived from the formulation of the technical active ingredient in acetone/water (50:50) solution containing 0.5% Tween 20 (polyoxyethelyene sorbitan monolaurate, CAS RN 9005-64-5). The test plants were then grown in a glasshouse under controlled conditions (at 24/16°, day/night; 14 hours light; 65% humidity) and watered twice daily. After 13 days, the test was evaluated (5=total damage to plant; 0=no damage to plant).

Experiment [2] concerns Triticum aestivium (TRZAW). Description: Pre-emergence herbicidal activity, Triticum aestivium. Also on record: key: 5=total damage to plant; 0=no damage to plant. How it is done: as §1
For experiment [3], the system named is Lolium perenne (LOLPE). In words: Post-emergence herbicidal activity, Lolium perenne. The protocol: (§2) Seeds of a variety of test species were sown in standard soil in pots: Triticum aestivium (TRZAW), Avena fatua (AVEFA), Alopecurus myosuroides (ALOMY), Echinochloa crus-galli (ECHCG), Lolium perenne (LOLPE), Zea Mays (ZEAMX), Abutilon theophrasti (ABUTH), Amaranthus retroflexus (AMARE) and Setaria faberi (SETFA). After 8 days cultivation (post-emergence) under controlled conditions in a glasshouse (at 24/16° C., day/night; 14 hours light; 65% humidity), the plants were sprayed with an aqueous spray solution derived from the formulation of the technical active ingredient in acetone/water (50:50) solution containing 0.5% Tween 20 (polyoxyethelyene sorbitan monolaurate, CAS RN 9005-64-5). The test plants were then grown in a glasshouse under controlled conditions (at 24/16° C., day/night; 14 hours light; 65% humidity) and watered twice daily. After 13 days, the test was evaluated (5=total damage to plant; 0=no damage to plant).

Experiment [4] deals with Setaria faberi (SETFA). In words: Pre-emergence herbicidal activity, Setaria faberi. More on the design: key: 5=total damage to plant; 0=no damage to plant. The protocol: as §1
For experiment [5], the system named is Avena fatua (AVEFA). Description: Post-emergence herbicidal activity, Avena fatua. The protocol:
as §2

The test system of experiment [6] is Avena fatua (AVEFA). Description: Pre-emergence herbicidal activity, Avena fatua. Also on record: key: 5=total damage to plant; 0=no damage to plant. How it is done: as §1
In experiment [7] the test system is Lolium perenne (LOLPE). Description: Pre-emergence herbicidal activity, Lolium perenne. More on the design: key: 5=total damage to plant; 0=no damage to plant. The protocol: as §1
In experiment [8] the test system is Triticum aestivium (TRZAW). Description: Post-emergence herbicidal activity, Triticum aestivium. Also on record: key: 5=total damage to plant; 0=no damage to plant. The protocol: as §2
The subject of experiment [9] is Alopecurus myosuroides (ALOMY). In words: Pre-emergence herbicidal activity, Alopecurus myosuroides. Also on record: key: 5=total damage to plant; 0=no damage to plant. How it is done:
as §1

The subject of experiment [10] is Setaria faberi (SETFA). In words: Post-emergence herbicidal activity, Setaria faberi. More on the design: key: 5=total damage to plant; 0=no damage to plant. The protocol:
as §2

In experiment [11] the test system is Alopecurus myosuroides (ALOMY). In words: Post-emergence herbicidal activity, Alopecurus myosuroides. More on the design: key: 5=total damage to plant; 0=no damage to plant. How it is done:
as §2

Experiment [12] concerns Echinochloa crus-galli (ECHCG). Description: Post-emergence herbicidal activity, Echinochloa crus-galli. Also on record: key: 5=total damage to plant; 0=no damage to plant. How it is done: as §2

In the case of `O=C(Nc1ccc(-c2cncc(F)c2)nc1C(F)(F)F)N1CCCC1` [Compound B63], in [1] (1000 g/ha), the “Control of ECHCG after pre-emergence application (score 0-5)” value worked out at 2. Also, in [2] (1000 g/ha), the “Control of TRAZW after pre-emergence application (score 0-5)” value is 0. Also, in [3] (1000 g/ha), the “Control of LOLPE after post-emergence application (score 0-5)” value is on record as 2. The “Control of SETFA after pre-emergence application (score 0-5)” value in [4] (1000 g/ha) turned out to be 2. Also, in experiment [5] (1000 g/ha), the “Control of AVEFA after post-emergence application (score 0-5)” value is recorded as 2. The “Control of AVEFA after pre-emergence application (score 0-5)” value in experiment [6] (1000 g/ha) is 0. Also, the “Control of LOLPE after pre-emergence application (score 0-5)” value in experiment [7] (1000 g/ha) came out at 0. Also, the “Control of TRAZW after post-emergence application (score 0-5)” value in experiment [8] (1000 g/ha) is 0. Moreover, the “Control of ALOMY after pre-emergence application (score 0-5)” value in [9] (1000 g/ha) is on record as 1. Further, in [10] (1000 g/ha), the “Control of SETFA after post-emergence application (score 0-5)” value came out at 3. Moreover, the “Control of ALOMY after post-emergence application (score 0-5)” value in experiment [11] (1000 g/ha) is given as 0. For the same compound, the “Control of ECHCG after post-emergence application (score 0-5)” value in experiment [12] (1000 g/ha) is 5.

In the case of `O=C(NCc1cccnc1)Nc1ccc(-c2cncc(F)c2)nc1C(F)(F)F` [Compound B97], the “Control of ECHCG after pre-emergence application (score 0-5)” value in [1] (250 g/ha) was found to be 0. The “Control of TRAZW after pre-emergence application (score 0-5)” value in experiment [2] (250 g/ha) stood at 0. For the same compound, the “Control of LOLPE after post-emergence application (score 0-5)” value in experiment [3] (250 g/ha) worked out at 1. Moreover, the “Control of SETFA after pre-emergence application (score 0-5)” value in [4] (250 g/ha) amounted to 0. Moreover, in experiment [5] (250 g/ha), the “Control of AVEFA after post-emergence application (score 0-5)” value is given as 2. In addition, the “Control of AVEFA after pre-emergence application (score 0-5)” value in experiment [6] (250 g/ha) is listed as 0. Further, the “Control of LOLPE after pre-emergence application (score 0-5)” value in [7] (250 g/ha) is recorded as 0. The “Control of TRAZW after post-emergence application (score 0-5)” value in [8] (250 g/ha) turned out to be 0. Also, the “Control of ALOMY after pre-emergence application (score 0-5)” value in [9] (250 g/ha) worked out at 0. Besides, in experiment [10] (250 g/ha), the “Control of SETFA after post-emergence application (score 0-5)” value stood at 1. Moreover, in [11] (250 g/ha), the “Control of ALOMY after post-emergence application (score 0-5)” value stood at 0. Besides, the “Control of ECHCG after post-emergence application (score 0-5)” value in experiment [12] (250 g/ha) is 1.

Turning to `C=CCN(C(=O)OC(C)(C)C)c1ccc(-c2cncc(F)c2)nc1C(F)(F)F` [Compound B9], the “Control of ECHCG after pre-emergence application (score 0-5)” value in experiment [1] (1000 g/ha) came out at 3. For the same compound, the “Control of TRAZW after pre-emergence application (score 0-5)” value in experiment [2] (1000 g/ha) is 0. The “Control of LOLPE after post-emergence application (score 0-5)” value in experiment [3] (1000 g/ha) was found to be 4. Further, in experiment [4] (1000 g/ha), the “Control of SETFA after pre-emergence application (score 0-5)” value is given as 5. In experiment [5] (1000 g/ha), the “Control of AVEFA after post-emergence application (score 0-5)” value was 3. Further, the “Control of AVEFA after pre-emergence application (score 0-5)” value in experiment [6] (1000 g/ha) worked out at 2. For the same compound, the “Control of LOLPE after pre-emergence application (score 0-5)” value in experiment [7] (1000 g/ha) was found to be 2. Moreover, the “Control of TRAZW after post-emergence application (score 0-5)” value in experiment [8] (1000 g/ha) is reported as 1. Further, the “Control of ALOMY after pre-emergence application (score 0-5)” value in experiment [9] (1000 g/ha) is given as 1. In addition, the “Control of SETFA after post-emergence application (score 0-5)” value in [10] (1000 g/ha) is given as 5. Further, the “Control of ALOMY after post-emergence application (score 0-5)” value in experiment [11] (1000 g/ha) is recorded as 1. Further, in experiment [12] (1000 g/ha), the “Control of ECHCG after post-emergence application (score 0-5)” value worked out at 5.

As to `O=C(Nc1ccc(-c2cncc(F)c2)nc1C(F)(F)F)OC1CCOCC1` [Compound B93], the “Control of ECHCG after pre-emergence application (score 0-5)” value in experiment [1] (250 g/ha) turned out to be 4. Besides, in [2] (250 g/ha), the “Control of TRAZW after pre-emergence application (score 0-5)” value was 0. In addition, in [3] (250 g/ha), the “Control of LOLPE after post-emergence application (score 0-5)” value worked out at 3. Moreover, the “Control of SETFA after pre-emergence application (score 0-5)” value in [4] (250 g/ha) is 5. The “Control of AVEFA after post-emergence application (score 0-5)” value in [5] (250 g/ha) is 4. In experiment [6] (250 g/ha), the “Control of AVEFA after pre-emergence application (score 0-5)” value was determined as 2. The “Control of LOLPE after pre-emergence application (score 0-5)” value in [7] (250 g/ha) came to 1. In addition, in [8] (250 g/ha), the “Control of TRAZW after post-emergence application (score 0-5)” value is given as 0. Moreover, the “Control of ALOMY after pre-emergence application (score 0-5)” value in experiment [9] (250 g/ha) was found to be 0. Also, in [10] (250 g/ha), the “Control of SETFA after post-emergence application (score 0-5)” value came out at 5. In addition, the “Control of ALOMY after post-emergence application (score 0-5)” value in experiment [11] (250 g/ha) was found to be 0. Besides, the “Control of ECHCG after post-emergence application (score 0-5)” value in experiment [12] (250 g/ha) is on record as 5.

As to `O=C(NCc1ccc(Cl)cc1)Nc1ccc(-c2cncc(F)c2)nc1C(F)(F)F` [Compound B38], in [1] (1000 g/ha), the “Control of ECHCG after pre-emergence application (score 0-5)” value is on record as 1. In experiment [2] (1000 g/ha), the “Control of TRAZW after pre-emergence application (score 0-5)” value amounted to 0. For the same compound, in [3] (1000 g/ha), the “Control of LOLPE after post-emergence application (score 0-5)” value was 2. Moreover, the “Control of SETFA after pre-emergence application (score 0-5)” value in [4] (1000 g/ha) came to 3. For the same compound, in experiment [5] (1000 g/ha), the “Control of AVEFA after post-emergence application (score 0-5)” value is reported as 2. Besides, in [6] (1000 g/ha), the “Control of AVEFA after pre-emergence application (score 0-5)” value stood at 0. Also, in experiment [7] (1000 g/ha), the “Control of LOLPE after pre-emergence application (score 0-5)” value is 0. Also, in experiment [8] (1000 g/ha), the “Control of TRAZW after post-emergence application (score 0-5)” value was 0. Moreover, the “Control of ALOMY after pre-emergence application (score 0-5)” value in experiment [9] (1000 g/ha) is given as 0. In addition, in experiment [10] (1000 g/ha), the “Control of SETFA after post-emergence application (score 0-5)” value is recorded as 4. Besides, in experiment [11] (1000 g/ha), the “Control of ALOMY after post-emergence application (score 0-5)” value came out at 0. In addition, the “Control of ECHCG after post-emergence application (score 0-5)” value in experiment [12] (1000 g/ha) turned out to be 2.

The record behind these values is patent publication US20210127673A1, “HERBICIDES” (SYNGENTA PARTICIPATIONS AG, priority 2016, published 2021).
